Experimental findings from article PMC7767178 (International Journal of Molecular Sciences, 2020) are described below.

≈ marks a conversion by molar mass, not a printed value. Read-outs that look alike come from different tables or passages of the source.

One series deals with A. veronii CL0901. As for the experimental part:
(§1) Briefly, the tested strains including Gram-negative bacteria, Gram-positive bacteria, and fungi were cultured to the logarithmic growth phase, diluted to 10^5 CFU/mL, and added into 96-well plates (90 μL/well). Two-fold serial dilutions of peptides or antibiotics dissolved in PBS were added to each well (10 μL/well). […] All experiments were repeated three times.

The subject of series [1] is Pseudomonas aeruginosa CICC21630. The settings on record: CICC21630. As for the experimental part: as §1
Another series deals with S. aureus ATCC25923. On the procedure:
as §1

A further series concerns S. hyicus NCTC10350. On the procedure:
as §1

The next series deals with mice. As to the kind of experiment: Toxic effect on mice. The series is classed as in vivo. The settings on record: reason for exclusion from the mouse models.
A further series concerns pepsin. The settings on record: pH 2.
In another series the test system is trypsin. The settings on record: pH 8.

One may read the MIC as the lowest concentration that inhibits growth of the organism. Low values mean inhibition by little substance, high ones a need for much substance. `CC(C)[C@@H]1NC(=O)CNC(=O)[C@H](CC(N)=O)NC(=O)[C@H](CCCNC(=N)N)NC(=O)[C@H](Cc2ccc(O)cc2)NC(=O)[C@H](C(C)C)NC(=O)[C@@H](NC(=O)[C@@H](NC(=O)[C@H](CC(N)=O)NC(=O)[C@H](Cc2c[nH]c3ccccc23)NC(=O)[C@H](C)NC(=O)[C@H](Cc2ccccc2)NC(=O)[C@H](CCCN)N=C(N(C)C)N(C)C)C(C)C)CSSC[C@@H](C(=O)N[C@@H](Cc2c[nH]cn2)C(=O)N[C@@H](CCCNC(=N)N)C(=O)N[C@@H](CCCNC(=N)N)C(=O)N[C@@H](C)C(=O)N[C@@H](CC(N)=O)C(N)=O)NC(=O)[C@H](C(C)C)NC(=O)[C@H](CCCNC(=N)N)NC1=O` (stereo in doubt) [Guo-N6NH2]: the MIC in the series with A. veronii CL0901 was 6.08 µM; in the series with A. veronii CL0901 (A. veronii CL0901, broth dilution, 37 °C, 16–18 h, three experiments), 16 µg/mL; in series [1] it was over 24.3 µM; with S. aureus ATCC25923 (ATCC25923), 12.16 µM; in the series with S. aureus ATCC25923 (S. aureus ATCC25923, broth dilution, 37 °C, 16–18 h, three experiments), 32 µg/mL; against S. hyicus NCTC10350 (NCTC10350), 24.32 µM. In addition, the MIC against S. hyicus NCTC10350 (S. hyicus NCTC10350, broth dilution, 37 °C, 16–18 h, three experiments) is 64 µg/mL. Also, the toxicity in mice result with mice is “toxic effect on mice”. Further, the “MIC after pepsin treatment” value in the series on pepsin was found to be 8 µg/mL (≈ 3.04 µM). Also, the “MIC after trypsin treatment” value in the series with trypsin is “lost their activity”.
